In US12723063B2, “GIPR-agonist compounds” (Eli Lilly and Company, priority 2019, dated 2026):
*1 amine or outer side, *2 acyl side, *3 side chain or, on linkers, in order; H or OH if unused. Where a SMILES comes first, the peptide text is derived from it. Side-chain parts run from the residue outwards. [ ]: non-standard residue; d: D form. The star is where a group is joined. C20 diacid = O=C(O)CCCCCCCCCCCCCCCCCCC(=O)*; C18 diacid = O=C(O)CCCCCCCCCCCCCCCCC(=O)*; γGlu = O=C(O)[C@H](CCC(=O)[*:2])N[*:1]; αMeY = C[C@](N)(Cc1ccc(O)cc1)C(=O)O; 4Pal = N[C@@H](Cc1ccncc1)C(=O)O; αMeL = CC(C)C[C@](C)(N)C(=O)O; Iva = CC[C@](C)(N)C(=O)O; Orn = NCCC[C@H](N)C(=O)O; AEEA = NCCOCCOCC(=O)O; Aib = CC(C)(N)C(=O)O

Biological target: T1, human GLP-1R (Homo sapiens, UniProt P43220)
T1 construct: expressed in transfected cells; crude membranes
Experiment: [125I]-GLP-1 binding, SPA with WGA beads, 0.1% bacitracin
Settings: geometric mean, read-out: hGLP1R Ki
Procedure, shortened: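 Binding buffer was 25 mM HEPES pH 7.4 with 2.5 mM CaCl2, 1 mM MgCl2, 0.1% (w/v) bacitracin, 0.003% Tween-20 and EDTA-free protease inhibitors. Four-parameter regression gave IC50, converted to Ki (geometric mean, SEM, n independent days).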

T1 sequence (P43220 24-463): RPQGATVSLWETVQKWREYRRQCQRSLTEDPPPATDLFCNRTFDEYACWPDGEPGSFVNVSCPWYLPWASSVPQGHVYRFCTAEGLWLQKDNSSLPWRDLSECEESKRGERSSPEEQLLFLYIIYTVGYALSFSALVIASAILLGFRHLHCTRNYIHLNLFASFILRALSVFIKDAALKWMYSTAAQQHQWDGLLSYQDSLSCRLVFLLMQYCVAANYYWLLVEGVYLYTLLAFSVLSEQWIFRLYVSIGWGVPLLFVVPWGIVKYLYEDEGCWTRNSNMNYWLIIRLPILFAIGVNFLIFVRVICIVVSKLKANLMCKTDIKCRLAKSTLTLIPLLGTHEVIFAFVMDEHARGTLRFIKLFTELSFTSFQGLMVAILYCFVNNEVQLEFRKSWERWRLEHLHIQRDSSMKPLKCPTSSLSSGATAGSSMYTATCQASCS

| SMILES | Ki [nM] |
| --- | --- |
| CC[C@H](C)[C@H](NC(=O)[C@H](CO)NC(=O)[C@H](Cc1ccc(O)cc1)NC(=O)[C@H](CC(=O)O)NC(=O)[C@H](CO)NC(=O)[C@@H](NC(=O)[C@H](Cc1ccccc1)NC(=O)[C@@H](NC(=O)CNC(=O)[C@H](CCC(=O)O)NC(=O)[C@@H](C)NC(=O)[C@@H](N)Cc1ccc(O)cc1)[C@@H](C)O)[C@@H](C)CC)C(=O)N[C@@H](CC(C)C)C(=O)N[C@@H](CC(C)C)C(=O)N[C@@H](CC(=O)O)C(=O)N[C@@H](CCCCN)C(=O)N[C@@H](CCCCNC(=O)COCCOCCNC(=O)COCCOCCNC(=O)CC[C@H](NC(=O)CCCCCCCCCCCCCCCCC(=O)O)C(=O)O)C(=O)N[C@@H](C)C(=O)N[C@@H](CCC(N)=O)C(=O)NC(C)(C)C(=O)N[C@@H](CCC(=O)O)C(=O)N[C@@H](Cc1ccccc1)C(=O)N[C@H](C(=O)N[C@@H](CC(N)=O)C(=O)N[C@@H](Cc1c[nH]c2ccccc12)C(=O)N[C@@H](CC(C)C)C(=O)N[C@@H](CC(C)C)C(=O)N[C@@H](C)C(=O)N[C@@H](CCC(N)=O)C(=O)NCC(=O)N1CCC[C@H]1C(=O)N[C@@H](CO)C(=O)N[C@@H](CO)C(=O)NCC(=O)N[C@@H](C)C(=O)N1CCC[C@H]1C(=O)N1CCC[C@H]1C(=O)N1CCC[C@H]1C(=O)N[C@@H](CO)C(N)=O)C(C)C [Example 20] (H-Y[dA]EGTFISDYSILLDKK([AEEA-AEEA-γGlu-C18 diacid])AQ[Aib]EFVNWLLAQGPSSGAPPPS-NH2) | 79.8 |
| CC[C@H](C)[C@H](NC(=O)[C@H](Cc1ccccc1)NC(=O)[C@@H](NC(=O)CNC(=O)[C@H](CCC(=O)O)NC(=O)C(C)(C)NC(=O)[C@@H](N)Cc1ccc(O)cc1)[C@@H](C)O)C(=O)N[C@@H](CO)C(=O)N[C@@H](CC(=O)O)C(=O)N[C@@H](Cc1ccc(O)cc1)C(=O)N[C@@H](CO)C(=O)N[C@H](C(=O)N[C@@](C)(CC(C)C)C(=O)N[C@@H](CC(C)C)C(=O)N[C@@H](CC(=O)O)C(=O)N[C@@H](CCCCN)C(=O)N[C@@H](CCCCNC(=O)COCCOCCNC(=O)COCCOCCNC(=O)CC[C@H](NC(=O)CCCCCCCCCCCCCCCCCCC(=O)O)C(=O)O)C(=O)N[C@@H](Cc1c[nH]cn1)C(=O)N[C@@H](CCC(N)=O)C(=O)NC(C)(C)C(=O)N[C@@H](CC(=O)O)C(=O)N[C@@H](Cc1ccccc1)C(=O)N[C@H](C(=O)N[C@@H](CCC(=O)O)C(=O)N[C@@](C)(Cc1ccc(O)cc1)C(=O)N[C@@H](CC(C)C)C(=O)N[C@@H](CC(C)C)C(=O)N[C@@H](CCC(=O)O)C(=O)N[C@@H](C)C(=O)NCC(=O)N1CCC[C@H]1C(=O)N[C@@H](CO)C(=O)N[C@@H](CO)C(=O)NCC(=O)N[C@@H](C)C(=O)N1CCC[C@H]1C(=O)N1CCC[C@H]1C(=O)N1CCC[C@H]1C(=O)N[C@@H](CO)C(N)=O)C(C)C)[C@@H](C)CC [Example 90] (H-Y[Aib]EGTFISDYSI[αMeL]LDKK([AEEA-AEEA-γGlu-C20 diacid])HQ[Aib]DFVE[αMeY]LLEAGPSSGAPPPS-NH2) | 102 |
| CC[C@H](C)[C@H](NC(=O)[C@H](CO)NC(=O)[C@H](Cc1ccc(O)cc1)NC(=O)[C@H](CC(=O)O)NC(=O)[C@H](CO)NC(=O)[C@@H](NC(=O)[C@](C)(CC)NC(=O)[C@@H](NC(=O)CNC(=O)[C@H](CCC(=O)O)NC(=O)C(C)(C)NC(=O)[C@@H](N)Cc1ccc(O)cc1)[C@@H](C)O)[C@@H](C)CC)C(=O)N[C@@](C)(CC(C)C)C(=O)N[C@@H](CC(C)C)C(=O)N[C@@H](CC(=O)O)C(=O)N[C@@H](CCCCN)C(=O)N[C@@H](CCCCNC(=O)COCCOCCNC(=O)COCCOCCNC(=O)CC[C@H](NC(=O)CCCCCCCCCCCCCCCCCCC(=O)O)C(=O)O)C(=O)N[C@@H](Cc1c[nH]cn1)C(=O)N[C@@H](CCC(N)=O)C(=O)NC(C)(C)C(=O)N[C@@H](CC(=O)O)C(=O)N[C@@H](Cc1ccccc1)C(=O)N[C@H](C(=O)N[C@@H](CCC(=O)O)C(=O)N[C@@H](Cc1ccncc1)C(=O)N[C@@H](CC(C)C)C(=O)N[C@@H](CC(C)C)C(=O)N[C@@H](CCC(=O)O)C(=O)NCC(=O)NCC(=O)N1CCC[C@H]1C(=O)N[C@@H](CO)C(=O)N[C@@H](CO)C(=O)NCC(=O)N[C@@H](C)C(=O)N1CCC[C@H]1C(=O)N1CCC[C@H]1C(=O)N1CCC[C@H]1C(=O)N[C@@H](CO)C(N)=O)C(C)C [Example 74] (H-Y[Aib]EGT[Iva]ISDYSI[αMeL]LDKK([AEEA-AEEA-γGlu-C20 diacid])HQ[Aib]DFVE[4Pal]LLEGGPSSGAPPPS-NH2) | 395 |
| CC[C@H](C)[C@H](NC(=O)[C@H](Cc1ccccc1)NC(=O)[C@@H](NC(=O)CNC(=O)[C@H](CCC(=O)O)NC(=O)C(C)(C)NC(=O)[C@@H](N)Cc1ccc(O)cc1)[C@@H](C)O)C(=O)N[C@@H](CO)C(=O)N[C@@H](CC(=O)O)C(=O)N[C@@H](Cc1ccc(O)cc1)C(=O)N[C@@H](CO)C(=O)N[C@H](C(=O)N[C@@](C)(CC(C)C)C(=O)N[C@@H](CC(C)C)C(=O)N[C@@H](CC(=O)O)C(=O)N[C@@H](CCC(=O)O)C(=O)N[C@@H](CCCCNC(=O)COCCOCCNC(=O)COCCOCCNC(=O)CC[C@H](NC(=O)CCCCCCCCCCCCCCCCCCC(=O)O)C(=O)O)C(=O)N[C@@H](Cc1c[nH]cn1)C(=O)N[C@@H](CCC(N)=O)C(=O)NC(C)(C)C(=O)N[C@@H](CC(=O)O)C(=O)N[C@@H](Cc1ccccc1)C(=O)N[C@H](C(=O)N[C@@H](CCC(=O)O)C(=O)N[C@@H](Cc1ccncc1)C(=O)N[C@@H](CC(C)C)C(=O)N[C@@H](CC(C)C)C(=O)N[C@@H](C)C(=O)N[C@@H](C)C(=O)NCC(=O)N1CCC[C@H]1C(=O)N[C@@H](CO)C(=O)N[C@@H](CO)C(=O)NCC(=O)N[C@@H](C)C(=O)N1CCC[C@H]1C(=O)N1CCC[C@H]1C(=O)N1CCC[C@H]1C(=O)N[C@@H](CO)C(N)=O)C(C)C)[C@@H](C)CC [Example 85] | 220 |
| CC[C@H](C)[C@H](NC(=O)[C@H](CO)NC(=O)[C@H](Cc1ccc(O)cc1)NC(=O)[C@H](CC(=O)O)NC(=O)[C@H](CO)NC(=O)[C@@H](NC(=O)[C@H](Cc1ccccc1)NC(=O)[C@@H](NC(=O)CNC(=O)[C@H](CCC(=O)O)NC(=O)[C@@H](C)NC(=O)[C@@H](N)Cc1ccc(O)cc1)[C@@H](C)O)[C@@H](C)CC)C(=O)N[C@@H](CC(C)C)C(=O)N[C@@H](CC(C)C)C(=O)N[C@@H](CC(=O)O)C(=O)N[C@@H](CCCCN)C(=O)N[C@@H](CCCCNC(=O)COCCOCCNC(=O)COCCOCCNC(=O)CC[C@H](NC(=O)CCCCCCCCCCCCCCCCCCC(=O)O)C(=O)O)C(=O)N[C@@H](Cc1c[nH]cn1)C(=O)N[C@@H](CCC(N)=O)C(=O)N[C@@H](CCC(N)=O)C(=O)N[C@@H](CCC(=O)O)C(=O)N[C@@H](Cc1ccccc1)C(=O)N[C@H](C(=O)N[C@@H](CC(N)=O)C(=O)N[C@@H](Cc1c[nH]c2ccccc12)C(=O)N[C@@H](CC(C)C)C(=O)N[C@@H](CC(C)C)C(=O)N[C@@H](C)C(=O)N[C@@H](CCC(N)=O)C(=O)NCC(=O)N1CCC[C@H]1C(=O)N[C@@H](CO)C(=O)N[C@@H](CO)C(=O)NCC(=O)N[C@@H](C)C(=O)N1CCC[C@H]1C(=O)N1CCC[C@H]1C(=O)N1CCC[C@H]1C(=O)N[C@@H](CO)C(N)=O)C(C)C [Example 13] (H-Y[dA]EGTFISDYSILLDKK([AEEA-AEEA-γGlu-C20 diacid])HQQEFVNWLLAQGPSSGAPPPS-NH2) | > 213 |
| CC[C@H](C)[C@H](NC(=O)[C@H](CCCN)NC(=O)[C@H](CC(=O)O)NC(=O)[C@H](CC(C)C)NC(=O)[C@](C)(CC(C)C)NC(=O)[C@@H](NC(=O)[C@H](CO)NC(=O)[C@H](Cc1ccc(O)cc1)NC(=O)[C@H](CC(=O)O)NC(=O)[C@H](CO)NC(=O)[C@@H](NC(=O)[C@H](Cc1ccccc1)NC(=O)[C@@H](NC(=O)CNC(=O)[C@H](CCC(=O)O)NC(=O)C(C)(C)NC(=O)[C@@H](N)Cc1ccc(O)cc1)[C@@H](C)O)[C@@H](C)CC)[C@@H](C)CC)C(=O)N[C@@H](Cc1c[nH]cn1)C(=O)N[C@@H](CCC(N)=O)C(=O)NC(C)(C)C(=O)N[C@@H](CCC(=O)O)C(=O)N[C@@H](Cc1ccccc1)C(=O)N[C@H](C(=O)N[C@@H](CCC(=O)O)C(=O)N[C@@H](Cc1ccc(O)cc1)C(=O)N[C@@H](CCCCNC(=O)COCCOCCNC(=O)COCCOCCNC(=O)CC[C@H](NC(=O)CCCCCCCCCCCCCCCCCCC(=O)O)C(=O)O)C(=O)N[C@@H](CC(C)C)C(=O)N[C@@H](CCC(=O)O)C(=O)N[C@H](C(=O)NCC(=O)N1CCC[C@H]1C(=O)N[C@@H](CO)C(=O)N[C@@H](CO)C(=O)NCC(=O)N[C@@H](C)C(=O)N1CCC[C@H]1C(=O)N1CCC[C@H]1C(=O)N1CCC[C@H]1C(=O)N[C@@H](CO)C(N)=O)[C@@H](C)O)C(C)C [Example 105] (H-Y[Aib]EGTFISDYSI[αMeL]LD[Orn]IHQ[Aib]EFVEYK([AEEA-AEEA-γGlu-C20 diacid])LETGPSSGAPPPS-NH2) | > 910 |
| CC[C@H](C)[C@H](NC(=O)[C@H](CCCN)NC(=O)[C@H](CC(=O)O)NC(=O)[C@H](CC(C)C)NC(=O)[C@](C)(CC(C)C)NC(=O)[C@@H](NC(=O)[C@H](CO)NC(=O)[C@H](Cc1ccc(O)cc1)NC(=O)[C@H](CC(=O)O)NC(=O)[C@H](CO)NC(=O)[C@@H](NC(=O)[C@H](Cc1ccccc1)NC(=O)[C@@H](NC(=O)CNC(=O)[C@H](CCC(=O)O)NC(=O)C(C)(C)NC(=O)[C@@H](N)Cc1ccc(O)cc1)[C@@H](C)O)[C@@H](C)CC)[C@@H](C)CC)C(=O)N[C@@H](Cc1c[nH]cn1)C(=O)N[C@@H](CCC(N)=O)C(=O)NC(C)(C)C(=O)N[C@@H](CC(=O)O)C(=O)N[C@@H](Cc1ccccc1)C(=O)N[C@H](C(=O)N[C@@H](CCC(=O)O)C(=O)N[C@@H](Cc1ccc(O)cc1)C(=O)N[C@@H](CCCCNC(=O)COCCOCCNC(=O)COCCOCCNC(=O)CC[C@H](NC(=O)CCCCCCCCCCCCCCCCC(=O)O)C(=O)O)C(=O)N[C@@H](CC(C)C)C(=O)N[C@@H](CCC(=O)O)C(=O)NCC(=O)NCC(=O)N1CCC[C@H]1C(=O)N[C@@H](CO)C(=O)N[C@@H](CO)C(=O)NCC(=O)N[C@@H](C)C(=O)N1CCC[C@H]1C(=O)N1CCC[C@H]1C(=O)N1CCC[C@H]1C(=O)N[C@@H](CO)C(N)=O)C(C)C [Example 103] (H-Y[Aib]EGTFISDYSI[αMeL]LD[Orn]IHQ[Aib]DFVEYK([AEEA-AEEA-γGlu-C18 diacid])LEGGPSSGAPPPS-NH2) | > 913 |
